32 compounds from the Kinase Knowledgebase extract (Sharma et al. 2016) can be followed below.

For assay [1], the target named is EGFR (human) (UniProt P00533). The following applies: A431.
In assay [2] the target is EGFR (human) (UniProt P00533). Conditions: a431.
The target in assay [3] is EGFR (human) (UniProt P00533). Conditions: a431. This is another data set of the same source.
Assay [4] deals with EGFR (human) (UniProt P00533). Conditions: a431. This is another data set of the same source.

Some results are limits rather than exact numbers.

Sequence of EGFR (human) (P00533 whole entry, looked up): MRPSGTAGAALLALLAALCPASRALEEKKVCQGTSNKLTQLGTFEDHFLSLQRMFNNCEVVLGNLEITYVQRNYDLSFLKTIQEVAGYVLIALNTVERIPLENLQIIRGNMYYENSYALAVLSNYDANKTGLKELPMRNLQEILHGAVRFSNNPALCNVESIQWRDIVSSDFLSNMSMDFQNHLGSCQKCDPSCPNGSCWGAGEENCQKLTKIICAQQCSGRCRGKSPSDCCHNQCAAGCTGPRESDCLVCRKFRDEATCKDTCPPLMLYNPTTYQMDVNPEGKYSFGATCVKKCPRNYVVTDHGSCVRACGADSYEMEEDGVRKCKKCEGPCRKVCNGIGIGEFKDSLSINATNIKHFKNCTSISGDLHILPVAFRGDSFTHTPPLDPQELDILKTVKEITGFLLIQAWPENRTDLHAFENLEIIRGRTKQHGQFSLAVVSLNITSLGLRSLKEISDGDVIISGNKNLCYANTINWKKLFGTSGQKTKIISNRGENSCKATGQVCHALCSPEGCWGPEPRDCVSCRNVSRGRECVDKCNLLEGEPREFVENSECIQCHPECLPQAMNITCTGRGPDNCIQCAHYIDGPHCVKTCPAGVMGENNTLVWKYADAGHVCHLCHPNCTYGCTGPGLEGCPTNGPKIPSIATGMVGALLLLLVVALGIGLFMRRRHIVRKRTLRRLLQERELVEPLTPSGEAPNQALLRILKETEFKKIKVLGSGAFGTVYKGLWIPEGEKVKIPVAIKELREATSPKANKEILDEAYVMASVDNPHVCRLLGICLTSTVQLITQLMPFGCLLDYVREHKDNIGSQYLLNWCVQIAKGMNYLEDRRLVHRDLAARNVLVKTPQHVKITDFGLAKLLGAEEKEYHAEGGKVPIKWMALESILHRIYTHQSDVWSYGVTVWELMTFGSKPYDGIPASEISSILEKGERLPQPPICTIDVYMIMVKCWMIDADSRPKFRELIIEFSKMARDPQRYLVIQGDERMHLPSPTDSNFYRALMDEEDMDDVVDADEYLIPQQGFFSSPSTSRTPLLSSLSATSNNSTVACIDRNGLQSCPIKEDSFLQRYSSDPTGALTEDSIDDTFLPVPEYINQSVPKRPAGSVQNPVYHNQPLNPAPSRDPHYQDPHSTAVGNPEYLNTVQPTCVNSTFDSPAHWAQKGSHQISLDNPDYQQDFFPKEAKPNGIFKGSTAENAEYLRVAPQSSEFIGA

By IC50 is commonly meant the midpoint of a concentration-inhibition curve. Lower therefore signals inhibition by little substance. `COc1cc2ncnc(N3CCS(=O)(=O)CC3)c2cc1OC` displayed an inhibition at EGFR (human) [1] of 0. In addition, the IC50 on EGFR (human) [2] and on EGFR (human) [3] was over 100 µM throughout.

For `COc1cc2ncnc(N3CCN(c4ccc(F)cc4)CC3)c2cc1OC`, on EGFR (human) [1], the inhibition worked out at 0. Besides, the IC50 against EGFR (human) [2] and against EGFR (human) [3] was over 100 µM in each case.

In the case of `COc1cc2ncnc(N3CCN(c4ccc(Cl)cc4)CC3)c2cc1OC`, the IC50 came to 0.0047 µM against EGFR (human) [1], 24.7 µM against EGFR (human) [2] and 85 µM against EGFR (human) [3].

For the compound `COc1cc2nc(Nc3cccc(Br)c3)n3nnnc3c2cc1OC`, the inhibition at EGFR (human) [1] is 0. For the same compound, the IC50 at EGFR (human) [2] and against EGFR (human) [3] was over 100 µM each time.

Regarding `COc1cc2ncnc(N3CCN(c4ccccc4C)CC3)c2cc1OC`, on EGFR (human) [1], the inhibition turned out to be 0. The half-inhibitory concentration (IC50) on EGFR (human) [2] and on EGFR (human) [3] was over 100 µM throughout.

Consider `COc1cc2ncnc(N(C)c3cccc(Br)c3)c2cc1OC`, for which the inhibition against EGFR (human) [1] and against EGFR (human) [4] was 0 in each case.

For `COc1cc2ncnc(N3CCN(c4ccccc4)CC3)c2cc1OC`, the inhibition against EGFR (human) [1] is 0. The IC50 was 30.8 µM at EGFR (human) [2] and 33.6 µM against EGFR (human) [3].

At EGFR (human) [1], `COc1cc2ncnc(N3CCN(c4ccccc4F)CC3)c2cc1OC` returned an inhibition of 0. In addition, the IC50 on EGFR (human) [2] and on EGFR (human) [3] was over 100 µM throughout.

`COc1cc2nc(N3CCOCC3)nc(N3CCOCC3)c2cc1OC` showed an inhibition at EGFR (human) [1] of 0. Also, the half-maximal inhibitory concentration (IC50) at EGFR (human) [2] and at EGFR (human) [3] was over 100 µM each time.

The compound `COc1cccc(N2CCN(c3ncnc4cc(OC)c(OC)cc34)CC2)c1` showed an inhibition against EGFR (human) [1] of 0. In addition, the IC50 was found to be 38.7 µM on EGFR (human) [2] and 58.8 µM on EGFR (human) [3].

With `COc1cc2ncnc(N3CCN(c4ccccc4OC)CC3)c2cc1OC`, the inhibition against EGFR (human) [1] came to 0. The IC50 against EGFR (human) [2] came to 1.4 µM; at EGFR (human) [3], 2.1 µM.

Compound `COc1cc2c(Nc3cccc(Br)c3)nc3nnnn3c2cc1OC` came in with an inhibition against EGFR (human) [1] of 0. For the same compound, the IC50 at EGFR (human) [2] and at EGFR (human) [3] was over 100 µM in each case.

On EGFR (human) [1], `COc1ccc(CCNc2ncnc3cc(OC)c(OC)cc23)cc1OC` had an inhibition of 0. Further, the concentration for half-maximal inhibition (IC50) at EGFR (human) [2] came out at 26.5 µM; on EGFR (human) [3] it was 30 µM.

Compound `COc1ccc(CCCCNc2ncnc3cc(OC)c(OC)cc23)cc1OC` had an inhibition on EGFR (human) [1] of 0. Also, the half-maximal inhibitory concentration (IC50) against EGFR (human) [2] and against EGFR (human) [3] was over 100 µM throughout.

For `COc1cc2ncnc(N3CCN(c4ccccn4)CC3)c2cc1OC`, at EGFR (human) [1], the inhibition was found to be 0. Moreover, the results for the IC50 against EGFR (human) [2] and against EGFR (human) [3] were 63.5 µM and 67.4 µM, respectively.

For the compound `COc1cc2ncnc(N3CCN(Cc4ccccc4)CC3)c2cc1OC`, the results for the IC50 on EGFR (human) [1], against EGFR (human) [2] and on EGFR (human) [3] were 17.9 µM, 21.8 µM and 34.6 µM, respectively.

At EGFR (human) [1], `COc1cc2ncnc(N3CCN(c4ccccc4Cl)CC3)c2cc1OC` registered an inhibition of 0. In addition, the 50% inhibitory concentration (IC50) against EGFR (human) [2] amounted to 13.7 µM; on EGFR (human) [3], 14.6 µM.

Regarding `COc1cccc(Nc2ncnc3cc(OC)c(OC)cc23)c1`, the IC50 on EGFR (human) [1] came out at 1.6 µM; against EGFR (human) [4], 0.706 µM; on EGFR (human) [2], 11.7 µM; at EGFR (human) [3], 77 µM.

`COc1ccc(CCCNc2ncnc3cc(OC)c(OC)cc23)cc1OC`: the inhibition at EGFR (human) [1] stood at 0. For the same compound, the IC50 was 22.8 µM on EGFR (human) [2] and 3 µM at EGFR (human) [3].

`COc1cc2ncnc(N3CCNCC3)c2cc1OC`: on EGFR (human) [1], the inhibition worked out at 0. For the same compound, the IC50 on EGFR (human) [2] and against EGFR (human) [3] was over 100 µM each time.

`COc1cc2nc(Nc3cccc(Br)c3)nc(Nc3cccc(Br)c3)c2cc1OC` gave an inhibition on EGFR (human) [1] of 0. In addition, the IC50 against EGFR (human) [2] was 13.2 µM; against EGFR (human) [3] it was 25.3 µM.

Take `COc1cc2ncnc(Nc3ccccc3[N+](=O)[O-])c2cc1OC`: the half-inhibitory concentration (IC50) is 0.0437 µM at EGFR (human) [1], 0.563 µM on EGFR (human) [4], 4.4 µM on EGFR (human) [2] and over 100 µM against EGFR (human) [3].

Take `COc1ccc(CNc2ncnc3cc(OC)c(OC)cc23)cc1OC`: the IC50 against EGFR (human) [1] came out at 31.6 µM; against EGFR (human) [2], 27.1 µM; on EGFR (human) [3], 30 µM.

`COc1cc2ncnc(N3CCOCC3)c2cc1OC` returned an inhibition on EGFR (human) [1] of 0. The IC50 against EGFR (human) [2] and at EGFR (human) [3] was over 100 µM each time.

Compound `COc1ccc(N2CCN(c3ncnc4cc(OC)c(OC)cc34)CC2)cc1` had an inhibition on EGFR (human) [1] of 0. The half-inhibitory concentration (IC50) on EGFR (human) [2] and on EGFR (human) [3] was over 100 µM in each case.

Regarding `COc1cc2nc3nccn3c(Nc3cccc(Br)c3)c2cc1OC`, the inhibition against EGFR (human) [1] amounted to 0. The half-maximal inhibitory concentration (IC50) against EGFR (human) [2] was 6.8 µM; against EGFR (human) [3], 6.6 µM.

The compound `COc1cc2ncnc(N3CCN(c4cccc(C(F)(F)F)c4)CC3)c2cc1OC` had an inhibition at EGFR (human) [1] of 0. Besides, the IC50 at EGFR (human) [2] was found to be 4.7 µM; on EGFR (human) [3], 3.9 µM.

In the case of `COc1cc2ncnc(N3CCN(c4ccc([N+](=O)[O-])cc4)CC3)c2cc1OC`, the IC50 against EGFR (human) [1] is 0.0168 µM; against EGFR (human) [2], 40.8 µM; on EGFR (human) [3] it was over 100 µM.

On EGFR (human) [1], `COc1cc2ncnc(N3CCSCC3)c2cc1OC` had an inhibition of 0. The IC50 against EGFR (human) [2] and on EGFR (human) [3] was over 100 µM each time.

On to `COc1cc2ncnc(NCCNc3ccccc3)c2cc1OC`, for which the concentration for half-maximal inhibition (IC50) against EGFR (human) [1] is 31.6 µM; against EGFR (human) [2], over 100 µM; against EGFR (human) [3] it was over 100 µM.

For the compound `COc1cc2ncnc(N3CCN(c4cccc(Cl)c4)CC3)c2cc1OC`, the inhibition against EGFR (human) [1] was 0. The IC50 against EGFR (human) [2] and on EGFR (human) [3] was over 100 µM throughout.

In the case of `COc1ccc(Nc2ncnc3cc(OC)c(OC)cc23)cc1OC`, the half-inhibitory concentration (IC50) on EGFR (human) [1] is 9.4 µM; against EGFR (human) [2] it was over 100 µM; on EGFR (human) [3] it was over 100 µM.
